These results are taken from patent publication US11666658B2, “Rifamycin analogs and antibody-drug conjugates thereof” (Regeneron Pharmaceuticals, Inc., priority 2018, dated 2023).

One assay relates to S. aureus NRS384. In words: Broth minimum inhibitory concentration (MIC) assay 2. Format: cell-based, Staphylococcus aureus. The settings on record: Staphylococcus aureus; S. aureus NRS384 in TSB, 24 hours at 37° C., OD600; median of at least two independent experiments; read-out: S. aureus Broth MIC. As for the experimental part: To test the potency of rifamycin analogs of the disclosure in vitro, a broth growth inhibition assay was developed. For the assay, S. aureus NRS384 was grown in Tryptic Soy Broth (TSB) overnight, then sub-cultured 1:50 in fresh TSB and grown for an additional two hours. The culture was then pelleted via centrifugation and washed twice in PBS. The culture was then diluted to 1×10^6 cfu/mL in TSB and 100 μL of the suspension was added per well to a 2 mL dilution plate in triplicate. […] The plates were sealed and incubated at 37° C. with shaking for 24 hours, then 150 μL of each sample was added to 96 well microtiter plates and the OD600 nm was read on a Spectramax i3 Minimax 300.
The broth MIC experiments were assessed in at least two independent experiments and the median value is captured below unless indicated otherwise.

Assay [1] concerns intracellular S. aureus NRS384 in THP-1 macrophages. In words: Intracellular killing assay 2 (rifamycin analogs, S. aureus in THP-1 macrophages). Format: cell-based, Staphylococcus aureus. The settings on record: Staphylococcus aureus, NRS384, 2 h; lowest concentration giving intracellular S. aureus below limit of detection (50 cfu/mL) in THP-1 macrophages; median of at least two experiments; read-out: S. aureus Intracellular killing MIC. As for the experimental part: THP-1 monocytic cell line was grown in media (RMPI+10% FBS+1% Penicillin/Streptomycin), then seeded at a density of 1e5 cells/well in a 96 well plate and differentiated into macrophages for three days prior to infection using 200 nM PMA. An overnight culture of S. aureus NRS384 was grown in RPMI, washed twice with PBS and resuspended at 1e7 cfu/mL in PBS. THP-1 were washed with warm media (RMPI without FBS) to remove the Penicillin/Streptomycin and then infected with the S. aureus suspension at a multiplicity of infection of 10:1 (S. aureus: macrophages). Plates were spun at 300×g for 5 minutes to synchronize adhesion of the bacteria, then incubated at 37° C. for 2 hours. Free-floating bacteria were removed by washing 2× with warm media and remaining extracellular S. aureus were killed by addition of media containing gentamicin (50 ug/mL). […] The compounds were added in media containing 50 µg/mL gentamicin to prevent extracellular growth of S. aureus. After 2 hours, plates were washed 2× with warm RPMI without FBS, and 100 ul of THP-1 lysis buffer (0.1% Triton in PBS) was added to each well. S. aureus survival was enumerated by colony forming units through serial dilution and plating onto TSA.
The intracellular MIC value indicated represents the median value of at least two independent experiments, unless indicated otherwise.

The structures appear in SMILES notation. ≈ marks a conversion by molar mass, not a printed value. Bounds are passed on as bounds.

Take `CO[C@H]1/C=C/O[C@@]2(C)Oc3c(C)c(O)c4c(=O)c(c5oc6cc(OCCN(C)C(C)=O)cc(O)c6nc-5c4c3C2=O)NC(=O)/C(C)=C\C=C\[C@H](C)[C@H](O)[C@@H](C)[C@@H](O)[C@@H](C)[C@H](OC(C)=O)[C@@H]1C` [Analog 29j]: the MIC with S. aureus NRS384 is 0.000977 µM (≈ 0.000895 µg/mL); in assay [1] it was 0.04 µM (≈ 0.0366 µg/mL).
The matching figures for `CO[C@H]1/C=C/O[C@@]2(C)Oc3c(C)c(O)c4c(=O)c(c5oc6cc(O)cc(O)c6nc-5c4c3C2=O)NC(=O)/C(C)=C\C=C\[C@H](C)[C@H](O)[C@@H](C)[C@@H](O)[C@@H](C)[C@H](OC(C)=O)[C@@H]1C` [Analog 29k]: 0.0625 µM (≈ 0.0511 µg/mL) and over 1 µM.
The matching figures for `CO[C@H]1/C=C/O[C@@]2(C)Oc3c(C)c(O)c4c(=O)c(c5oc6cc(OCCNCCN)ccc6nc-5c4c3C2=O)NC(=O)/C(C)=C\C=C\[C@H](C)[C@H](O)[C@@H](C)[C@@H](O)[C@@H](C)[C@H](OC(C)=O)[C@@H]1C` [Analog 35]: 0.25 µM (≈ 0.222 µg/mL) and over 1 µM.
In the same order, the values of `CO[C@H]1/C=C/O[C@@]2(C)Oc3c(C)c(O)c4c(=O)c(c5oc6ccc(OCCN(C)C)cc6nc-5c4c3C2=O)NC(=O)/C(C)=C\C=C\[C@H](C)[C@H](O)[C@@H](C)[C@@H](O)[C@@H](C)[C@H](OC(C)=O)[C@@H]1C` [Analog 38] are 0.0625 µM (≈ 0.0545 µg/mL) and 1 µM (≈ 0.872 µg/mL).
Regarding `COc1cc(OCCN(C)C)cc2oc3c4c(=O)c5c(O)c(C)c6c(c5c-3nc12)C(=O)[C@@](C)(O/C=C/[C@H](OC)[C@@H](C)[C@@H](OC(C)=O)[C@H](C)[C@H](O)[C@H](C)[C@@H](O)[C@@H](C)/C=C/C=C(/C)C(=O)N4)O6` [Analog 43], the MIC was 0.00391 µM (≈ 0.00353 µg/mL) with S. aureus NRS384 and 0.04 µM (≈ 0.0361 µg/mL) in assay [1].
In the same order, the values of `CO[C@H]1/C=C/O[C@@]2(C)Oc3c(C)c(O)c4c(=O)c(c5oc6cc(OCCN(C)C)cc(Cl)c6nc-5c4c3C2=O)NC(=O)/C(C)=C\C=C\[C@H](C)[C@H](O)[C@@H](C)[C@@H](O)[C@@H](C)[C@H](OC(C)=O)[C@@H]1C` [Analog 45] are 0.00391 µM (≈ 0.00354 µg/mL) and 1 µM (≈ 0.906 µg/mL).
In the same order, the values of `CO[C@H]1/C=C/O[C@@]2(C)Oc3c(C)c(O)c4c(=O)c(c5oc6cc(OCCN(C)C)c(Cl)cc6nc-5c4c3C2=O)NC(=O)/C(C)=C\C=C\[C@H](C)[C@H](O)[C@@H](C)[C@@H](O)[C@@H](C)[C@H](OC(C)=O)[C@@H]1C` [Analog 48] are 0.0156 µM (≈ 0.0141 µg/mL) and 1 µM (≈ 0.906 µg/mL).
In the same order, the values of `CCCCOc1cc(OCCN(C)C)cc2oc3c4c(=O)c5c(O)c(C)c6c(c5c-3nc12)C(=O)[C@@](C)(O/C=C/[C@H](OC)[C@@H](C)[C@@H](OC(C)=O)[C@H](C)[C@H](O)[C@H](C)[C@@H](O)[C@@H](C)/C=C/C=C(/C)C(=O)N4)O6` [Analog 50] are 0.0156 µM (≈ 0.0147 µg/mL) and 1 µM (≈ 0.944 µg/mL).
With `CO[C@H]1/C=C/O[C@@]2(C)Oc3c(C)c(O)c4c(=O)c(c5oc6cc(OCCN(C)C)cc(OCc7ccccc7)c6nc-5c4c3C2=O)NC(=O)/C(C)=C\C=C\[C@H](C)[C@H](O)[C@@H](C)[C@@H](O)[C@@H](C)[C@H](OC(C)=O)[C@@H]1C` [Analog 52], the values for the MIC (in the assay on S. aureus NRS384; in assay [1]) were 0.0625 µM (≈ 0.0611 µg/mL) and 1 µM (≈ 0.978 µg/mL), respectively.
In the same order, the values of `CO[C@H]1/C=C/O[C@@]2(C)Oc3c(C)c(O)c4c(=O)c(c5oc6cc(OCCN(C)C)cc(F)c6nc-5c4c3C2=O)NC(=O)/C(C)=C\C=C\[C@H](C)[C@H](O)[C@@H](C)[C@@H](O)[C@@H](C)[C@H](OC(C)=O)[C@@H]1C` [Analog 55] are 0.0156 µM (≈ 0.0139 µg/mL) and 0.2 µM (≈ 0.178 µg/mL).
Consider `CO[C@H]1/C=C/O[C@@]2(C)Oc3c(C)c(O)c4c(=O)c(c5oc6cc(O)cc(F)c6nc-5c4c3C2=O)NC(=O)/C(C)=C\C=C\[C@H](C)[C@H](O)[C@@H](C)[C@@H](O)[C@@H](C)[C@H](OC(C)=O)[C@@H]1C` [Analog 55a], for which the MIC was 0.0625 µM (≈ 0.0512 µg/mL) in the assay with S. aureus NRS384 and over 1 µM in assay [1].
In the same order, the values of `CO[C@H]1/C=C/O[C@@]2(C)Oc3c(C)c(O)c4c(=O)c(c5oc6cc(OCCN(C)C)cc(SC)c6nc-5c4c3C2=O)NC(=O)/C(C)=C\C=C\[C@H](C)[C@H](O)[C@@H](C)[C@@H](O)[C@@H](C)[C@H](OC(C)=O)[C@@H]1C` [Analog 60] are 0.00391 µM (≈ 0.00359 µg/mL) and 0.2 µM (≈ 0.184 µg/mL).
